Results from US8741806B2, “Herbicides” (Syngenta Limited, priority 2009, dated 2014).

Tests used:
Format in all cases: in vivo
[1] = test system: Alopecurus myosuroides (ALOMY); test: Example A pre-emergence herbicidal activity, glasshouse pot test; details: Rate 250 g/ha, evaluated 20 days later, 100=total damage to plant, 0=no damage to plant
Protocol: (§1) Seeds of a variety of test species were sown in standard soil in pots. After cultivation for one day (pre-emergence) or after 10 days cultivation (post-emergence) under controlled conditions in a glasshouse, the plants were sprayed with an aqueous spray solution derived from the formulation of the technical active ingredient of formula I in 0.6 ml acetone and 45 ml formulation solution containing 10.6% Emulsogen EL (Registry number 61791-12-6), 42.2% N-methylpyrrolidone, 42.2% dipropylene glycol monomethyl ether (Registry number 34590-94-8) and 0.2% X-77 (Registry number 11097-66-8). The test plants were then grown in a greenhouse under optimum conditions until, 15 days later for post-emergence and 20 days for pre-emergence, the test was evaluated (100=total damage to plant; 0=no damage to plant). The compound of Example 1-8-a-1 from WO99/48869 was also sprayed for comparison. Alopecurus myosuroides (ALOMY), Avena fatua (AVEFA), Lolium perenne (LOLPE), Setaria faberi (SETFA), Digitaria sanguinalis (DIGSA), Echinochloa crus-galli (ECHCG) and Sorghum bicolor (SORVU) Pre-Emergence Activity

Avena fatua (AVEFA) [2] = test: as above; details: Rate 250 g/ha, evaluated 20 days later, 100=total damage to plant, 0=no damage to plant
Protocol: as §1

[3] = test system: Echinochloa crus-galli (ECHCG); test: as above; details: Rate 250 g/ha, evaluated 20 days later, 100=total damage to plant, 0=no damage to plant
Protocol: as §1

Lolium perenne (LOLPE) = test: as above; details: Rate 250 g/ha, evaluated 20 days later, 100=total damage to plant, 0=no damage to plant
Protocol: as §1

Setaria faberi (SETFA) [4] = test: as above; details: Rate 250 g/ha, evaluated 20 days later, 100=total damage to plant, 0=no damage to plant
Protocol: as §1

[5] = test system: Alopecurus myosuroides (ALOMY); test: Example A post-emergence herbicidal activity, glasshouse pot test; details: Rate 15 g/ha, evaluated 15 days later, 100=total damage to plant, 0=no damage to plant
Protocol: as §1, with “Post-Emergence” for “Pre-Emergence”

Avena fatua (AVEFA) [6] = test: as above; details: Rate 15 g/ha, evaluated 15 days later, 100=total damage to plant, 0=no damage to plant
Protocol: as §1, with “Post-Emergence” for “Pre-Emergence”

[7] = test system: Digitaria sanguinalis (DIGSA); test: as above; details: Rate 15 g/ha, evaluated 15 days later, 100=total damage to plant, 0=no damage to plant
Protocol: as §1, with “Post-Emergence” for “Pre-Emergence”

[8] = test system: Echinochloa crus-galli (ECHCG); test: as above; details: Rate 15 g/ha, evaluated 15 days later, 100=total damage to plant, 0=no damage to plant
Protocol: as §1, with “Post-Emergence” for “Pre-Emergence”

Setaria faberi (SETFA) [9] = test: as above; details: Rate 15 g/ha, evaluated 15 days later, 100=total damage to plant, 0=no damage to plant
Protocol: as §1, with “Post-Emergence” for “Pre-Emergence”

Sorghum bicolor (SORVU) = test: as above; details: Rate 15 g/ha, evaluated 15 days later, 100=total damage to plant, 0=no damage to plant
Protocol: as §1, with “Post-Emergence” for “Pre-Emergence”

[10] = test system: Alopecurus myosuroides (ALOMY); test: Example B pre-emergence herbicidal activity, glasshouse pot test; details: 312 h, rate 250 g/ha, evaluated after 13 days, scale 0-100, read-out: Pre-emergence activity ALOMY (100=total damage to plant; 0=no damage to plant)
In short: (§2)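 Pots were sprayed one day after sowing with the active ingredient in acetone/water (50:50) containing 0.5% Tween 20. Plants were kept in a glasshouse at 24/16° C day/night, 14 h light, 65% humidity. Damage was scored 13 days later (0 none to 100 total).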

Avena fatua (AVEFA) [11] = test: as above; details: 312 h, rate 250 g/ha, evaluated after 13 days, scale 0-100, read-out: Pre-emergence activity AVEFA (100=total damage to plant; 0=no damage to plant)
In short: as §2

[12] = test system: Echinochloa crus-galli (ECHCG); test: as above; details: 312 h, rate 250 g/ha, evaluated after 13 days, scale 0-100, read-out: Pre-emergence activity ECHCG (100=total damage to plant; 0=no damage to plant)
In short: as §2

Setaria faberi (SETFA) [13] = test: as above; details: rate 250 g/ha, evaluated after 13 days, scale 0-100
In short: as §2

[14] = test system: Alopecurus myosuroides (ALOMY); test: Example B post-emergence herbicidal activity, glasshouse pot test; details: 312 h, rate 250 g/ha, evaluated after 13 days, scale 0-100, read-out: Post-emergence activity ALOMY (100=total damage to plant; 0=no damage to plant)
In short: (§3)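 Seeds sown in standard soil, grown 8 days in glasshouse (24/16 °C day/night, 14 h light, 65% humidity), then sprayed post-emergence with compound in acetone/water (50:50) containing 0.5% Tween 20. Damage scored visually after 13 days on a 0–100 scale (100 = total damage).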

Avena fatua (AVEFA) [15] = test: as above; details: 312 h, rate 250 g/ha, evaluated after 13 days, scale 0-100, read-out: Post-emergence activity AVEFA (100=total damage to plant; 0=no damage to plant)
In short: as §3

[16] = test system: Echinochloa crus-galli (ECHCG); test: as above; details: 312 h, rate 250 g/ha, evaluated after 13 days, scale 0-100, read-out: Post-emergence activity ECHCG (100=total damage to plant; 0=no damage to plant)
In short: as §3

Setaria faberi (SETFA) [17] = test: as above; details: rate 250 g/ha, evaluated after 13 days, scale 0-100
In short: as §3

[18] = test system: Digitaria sanguinalis (DIGSA); test: Example A pre-emergence herbicidal activity, glasshouse pot test; details: Rate 250 g/ha, evaluated 20 days later, 100=total damage to plant, 0=no damage to plant
Protocol: as §1

| SMILES | Pre-Emergence Activity ALOMY (damage to plant) [1] | Pre-Emergence Activity AVEFA (damage to plant) (Avena fatua (AVEFA) [2]) | Pre-Emergence Activity ECHCG (damage to plant) [3] | Pre-Emergence Activity LOLPE (damage to plant) (Lolium perenne (LOLPE)) | Pre-Emergence Activity SETFA (damage to plant) (Setaria faberi (SETFA) [4]) | Post-Emergence Activity ALOMY (damage to plant) [5] | Post-Emergence Activity AVEFA (damage to plant) (Avena fatua (AVEFA) [6]) | Post-Emergence Activity DIGSA (damage to plant) [7] | Post-Emergence Activity ECHCG (damage to plant) [8] | Post-Emergence Activity SETFA (damage to plant) (Setaria faberi (SETFA) [9]) | Post-Emergence Activity SORVU (damage to plant) (Sorghum bicolor (SORVU)) | pest or weed control at 250 g/ha [10] | pest or weed control at 250 g/ha (Avena fatua (AVEFA) [11]) | pest or weed control at 250 g/ha [12] | Pre-emergence activity SETFA (100=total damage to plant; 0=no damage to plant) (Setaria faberi (SETFA) [13]) | pest or weed control at 250 g/ha [14] | pest or weed control at 250 g/ha (Avena fatua (AVEFA) [15]) | pest or weed control at 250 g/ha [16] | Post-emergence activity SETFA (100=total damage to plant; 0=no damage to plant) (Setaria faberi (SETFA) [17]) | Pre-Emergence Activity DIGSA (damage to plant) [18] |
| --- | --- | --- | --- | --- | --- | --- | --- | --- | --- | --- | --- | --- | --- | --- | --- | --- | --- | --- | --- | --- |
| CCc1ccc(-c2ccc(Cl)cc2)cc1C1=C(O)C(C)(C)CCC1=O [Compound T1, 2-(4′-chloro-4-ethylbiphen-3-yl)-4,4-dimethyl-1,3-cyclohexanedione] | 60 | 70 | 90 | 90 | 100 | 0 | 10 | 80 | 70 | 90 | 50 | 50% | 0% | 100% | 100 | 90% | 40% | 100% | 100 |  |
| Cc1ccc(-c2ccc(Cl)cc2)cc1C1=C(O)C(C)(C)CCC1=O [Example 1-8-a-1 from WO99/48869, reference compound] | 20 | 0 | 90 | 20 | 30 | 0 | 0 | 20 | 70 | 20 | 0 |  |  |  |  |  |  |  |  | 70 |
| CCc1ccc(-c2ccc(Cl)cc2)cc1C1=C(O)CCCC1=O [Compound T2] | 60 | 70 | 100 | 70 | 80 | 0 | 0 | 80 | 90 | 80 | 70 | 40% | 40% | 100% | 100 | 90% | 80% | 100% | 100 | 80 |
| CCc1ccc(-c2ccc(Cl)cc2)cc1C1=C(O)CC(C)(C)CC1=O [Compound T3] | 90 | 50 | 100 | 100 | 80 | 50 | 20 | 70 | 70 | 70 | 70 | 60% | 20% | 100% | 100 | 100% | 20% | 100% | 100 | 100 |
